Reference: patent publication US11059842B2, “Monosaccharide amine and 3-nitro-2-phenyl-2H-chromene based inhibitors of glucose kinases” (UNIVERSITY OF SOUTH CAROLINA, priority 2019, dated 2021)
Where “and” joins values, the source holds several entries; their conditions need not be identical. Equal values may be shown once.

What was measured:
[1] = test system: T. cruzi (Tulahuen strain) infective form (trypomastigote and amastigote life stages) co-cultured in NIH-3T3 fibroblasts; assay: T. cruzi infective form growth inhibition in NIH-3T3 fibroblasts; format: cell-based, Trypanosoma cruzi; conditions: Tulahuen strain infective form in NIH-3T3 fibroblasts; N = 3 (Amphotericin B control: 6 replicates)
Procedure: The curve and the IC50 were calculated from measurements determined in triplicate and expressed as percent growth inhibition of the T. cruzi parasite infection of mammalian cells.
Compounds were further screened against the T. cruzi (Tulahuen strain) infective form (trypomastigote and amastigote life stages) co-cultured in NIH-3T3 fibroblasts to establish IC50 values. Assays were performed in triplicate.
The single dose in vitro study included administration of the compounds in 80 μM inhibitor concentrations (N=3). Amphotericin B was used as a control.

[2] = test system: glucose-6-phosphate dehydrogenase (G6PDH); assay: G6PDH confirmatory assay (coupling enzyme counter-screen); format: biochemical; conditions: 20 μM compound; quadruplicate
Procedure: The 16 compounds showing substantial inhibition against TcGlcK at compound concentrations of 20 μM were then examined in a confirmatory assay in which the amino sugar analogues were at a concentration of 20 μM and were tested against the assay's only coupling enzyme, G6PDH, to verify enzyme activity; the assay was performed in quadruplicate. […] These confirmed hits included representatives from all three monosaccharide scaffolds tested (i.e., D-GlcN, D-ManN, and D-GalN).

[3] = molecular target: Trypanosoma cruzi glucokinase (TcGlcK) (Trypanosoma cruzi (strain CL Brener), UniProt Q4E4E1); format: biochemical; conditions: percentage of inhibition at 20 μM of the compound; N = 1
Trypanosoma cruzi glucokinase (TcGlcK), sequence (Q4E4E1 1-376): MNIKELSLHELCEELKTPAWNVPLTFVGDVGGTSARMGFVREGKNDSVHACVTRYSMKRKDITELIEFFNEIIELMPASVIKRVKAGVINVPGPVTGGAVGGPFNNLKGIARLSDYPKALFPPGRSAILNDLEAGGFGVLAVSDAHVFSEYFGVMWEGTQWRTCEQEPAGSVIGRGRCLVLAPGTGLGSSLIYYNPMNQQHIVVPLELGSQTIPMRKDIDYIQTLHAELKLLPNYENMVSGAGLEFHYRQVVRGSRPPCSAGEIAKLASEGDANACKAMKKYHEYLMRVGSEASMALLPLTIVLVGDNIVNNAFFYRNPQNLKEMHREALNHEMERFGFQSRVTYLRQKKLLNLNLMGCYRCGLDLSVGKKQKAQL
Procedure: D-Glucose was also tested as a control with alternative substrates. The protein expression work for TcGlcK and HsHxKIV were each made possible through the E. coli strain BL21(DE3) system. Purification of each enzyme was performed through cobalt-NTA chromatography followed by size-exclusion chromatography; assessment of purity was performed by SDS-PAGE. […] A general reaction scheme included a first reaction in which the monosaccharide, ATP, and Mg^2+ react with the enzyme, e.g., TcGlcK, forming a hexose-phosphate and ADP. In a second reaction, hexose-phosphate with the assistance of glucose-6-phosphate dehydrogenase (G6PDH) and NADP^+ was converted to the lactone form of the hexose-phosphate and NADPH. Fluorescence of NADPH was monitored using a fluorescence microplate reader with […] wavelengths of 340 nm and 485 nm, respectively.
Michaelis-Menten constant (KM) values, which were used as the set final assay concentrations of substrates D-glucose and ATP for the primary screens, were determined for both TcGlcK and HsHxKIV in triplicate runs. […]
The cutoff percentage was calculated by using normalized percent inhibition that took into consideration the positive and negative controls of the fluorescence readout from a fluorescence microplate reader. In addition, an unconfirmed hit was selected if the activity measurement was three standard deviations away from the mean of the positive controls.

[4] = molecular target: Homo sapiens hexokinase IV (HsHxKIV) (Homo sapiens (Human), UniProt P35557); assay: HsHxKIV enzyme-inhibition screening assay (Example 1); format: biochemical; conditions: 20 μM compound; N = 1
Homo sapiens hexokinase IV (HsHxKIV), sequence (P35557 whole entry): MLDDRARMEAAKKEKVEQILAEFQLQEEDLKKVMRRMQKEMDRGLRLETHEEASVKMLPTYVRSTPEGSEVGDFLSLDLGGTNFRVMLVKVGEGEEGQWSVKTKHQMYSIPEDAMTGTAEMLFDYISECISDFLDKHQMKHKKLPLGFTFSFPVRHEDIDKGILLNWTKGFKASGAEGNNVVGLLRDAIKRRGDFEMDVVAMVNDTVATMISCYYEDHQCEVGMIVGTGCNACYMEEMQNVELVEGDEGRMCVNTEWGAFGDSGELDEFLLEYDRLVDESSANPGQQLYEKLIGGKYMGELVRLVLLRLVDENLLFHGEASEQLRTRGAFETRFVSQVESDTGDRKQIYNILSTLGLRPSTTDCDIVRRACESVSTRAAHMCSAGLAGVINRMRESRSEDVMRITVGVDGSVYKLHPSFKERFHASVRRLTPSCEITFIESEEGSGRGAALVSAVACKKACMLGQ
Procedure: (§1) D-Glucose was also tested as a control with alternative substrates. The protein expression work for TcGlcK and HsHxKIV were each made possible through the E. coli strain BL21(DE3) system. Purification of each enzyme was performed through cobalt-NTA chromatography followed by size-exclusion chromatography; assessment of purity was performed by SDS-PAGE. In enzymatic assays, a time-optimum (TOPT) was determined to be 120 seconds for TcGlcK and 600 seconds for HsHxKIV; all assays were run at room temperature. A general reaction scheme included a first reaction in which the monosaccharide, ATP, and Mg^2+ react with the enzyme, e.g., TcGlcK, forming a hexose-phosphate and ADP. In a second reaction, hexose-phosphate with the assistance of glucose-6-phosphate dehydrogenase (G6PDH) and NADP^+ was converted to the lactone form of the hexose-phosphate and NADPH. Fluorescence of NADPH was monitored using a fluorescence microplate reader with […] wavelengths of 340 nm and 485 nm, respectively.
(§2) FIG. 4 and FIG. 5 present typical Michaelis-Menten enzyme kinetic plots for D-glucose. As shown, the NADP^+ to NADPH turnover rate is a function of [D-glucose] & [ATP] for TcGlcK (FIG. 4) and HsHxKIV (FIG. 5) absent inhibition. Michaelis-Menten constant (KM) values, which were used as the set final assay concentrations of substrates D-glucose and ATP for the primary screens, were determined for both TcGlcK and HsHxKIV in triplicate runs. The KM values for TcGlcK with respect to D-glucose and ATP were 0.40 mM and 0.34 mM, respectively. The KM values for HsHxKIV with respect to D-glucose and ATP were 43 mM and 0.20 mM, respectively.

T. brucei = T. brucei in vitro screen; format: cell-based; conditions: Trypanosoma brucei; average; concentrations up to 10 μM, N=3
Procedure: Compounds 19-31 were screened against T. brucei. The single dose in vitro study included administration of the compounds in increasing concentrations up to 10 μM (N=3 for each compound concentration value). Media and T. bricei+0.5% SDS were used as control.

TcGlcK = TcGlcK (Trypanosoma cruzi (strain CL Brener), UniProt Q4E4E1); assay: TcGlcK Michaelis-Menten kinetics and substrate range; format: biochemical
TcGlcK, sequence (Q4E4E1 1-376): as the sequence (Q4E4E1 1-376) above
Procedure: as §1, §2
All phosphorylated hexoses were shown getting converted into their corresponding products by G6PDH, in abundant quantities through a 30-second time frame. This permitted the standard TcGlcK […] assay, which was timed for […], to be used as an assay to analyze alternative substrates.

Compound	IC50 [1] [µM]	G6PDH Inh20 (%) [2] [%]	TcGlcK Inh20 (%) [3]	HsHxKIV Inh20(%) [4] [%]	IC50 (T. brucei) [nM]	increase of TcGlcK activity from 15 mM to 50 mM substrate (TcGlcK) [fold]	TcGlcK activity relative to D-glucose (100%) (TcGlcK; substrate concentration 15 mM) [%]	TcGlcK activity relative to D-glucose (100%) (TcGlcK; substrate concentration 50 mM) [%]
C[C@@H]1[C@H](O)[C@@H](C)/C=C/C=C/C=C/C=C/C=C/C=C/C=C/[C@H](O[C@@H]2O[C@H](C)[C@@H](O)[C@H](N)[C@@H]2O)C[C@@H]2O[C@](O)(C[C@@H](O)C[C@@H](O)[C@H](O)CC[C@@H](O)C[C@@H](O)CC(=O)O[C@H]1C)C[C@H](O)[C@H]2C(=O)O [Amphotericin B, reference compound]	1.08 ± 0.84							
O=C(N[C@H]1C(O)O[C@H](CO)[C@@H](O)[C@@H]1O)c1cccc(Br)c1 (stereo partly shown) [Compound 2]	66.2 ± 3.83	0.0 ± 0.0	57%	31				
O=C(N[C@H]1C(O)O[C@H](CO)[C@@H](O)[C@@H]1O)c1ccc(CCl)cc1 (stereo partly shown) [Compound 3]	52.9 ± 2.72	0.0 ± 0.0	42%	35				
O=C(N[C@H]1C(O)O[C@H](CO)C(O)[C@@H]1O)c1ccoc1 (stereo partly shown) [Compound 6]	49.9 ± 2.99	0.0 ± 0.0	51%	41				
O=C(N[C@@H]1C(O)O[C@H](CO)[C@@H](O)[C@@H]1O)c1ccccc1 (stereo partly shown) [Compound 7]	43.5 ± 0.68	0.0 ± 0.0	71%	55				
O=C(N[C@@H]1C(O)O[C@H](CO)[C@@H](O)[C@@H]1O)c1cccc(Br)c1 (stereo partly shown) [Compound 8]	38.4 ± 1.4	0.0 ± 0.0	35%	27				
O=C(N[C@@H]1C(O)O[C@H](CO)[C@@H](O)[C@@H]1O)c1ccc(CCl)cc1 (stereo partly shown) [Compound 9]	38.4 ± 1.41	0.0 ± 0.0	33%	28				
O=C(N[C@@H]1C(O)O[C@H](CO)[C@@H](O)[C@@H]1O)c1cc2ccccc2o1 (stereo partly shown) [Compound 11]	42.5 ± 6.5		10%	12				
O=C(N[C@@H]1C(O)O[C@H](CO)[C@@H](O)[C@@H]1O)c1ccoc1 (stereo partly shown) [Compound 12]	67.5 ± 1.75	0.0 ± 0.0	58%	32				
O=C(N[C@H]1C(O)O[C@H](CO)[C@H](O)[C@@H]1O)c1ccccc1 (stereo partly shown) [Compound 13]	55.3 ± 11.9	0.0 ± 0.0	59%	38				
O=C(N[C@H]1C(O)O[C@H](CO)[C@H](O)[C@@H]1O)c1cccc(Br)c1 (stereo partly shown) [Compound 14]	19.9	0.0 ± 0.0	31% and 30.8%	30				
O=C(N[C@H]1C(O)O[C@H](CO)[C@H](O)[C@@H]1O)c1ccc(CCl)cc1 (stereo partly shown) [Compound 15]	37.9 ± 4.77		27%	8				
Cc1ccc(C(=O)N[C@H]2C(O)O[C@H](CO)[C@H](O)[C@@H]2O)o1 (stereo partly shown) [Compound 16]	20.2	0.0 ± 0.0	30%	41				
O=C(N[C@H]1C(O)O[C@H](CO)[C@H](O)[C@@H]1O)c1cc2ccccc2o1 (stereo partly shown) [Compound 17]	66.6 ± 13.7	0.0 ± 0.0	39%	37				
O=C(N[C@H]1C(O)O[C@H](CO)[C@H](O)[C@@H]1O)c1ccoc1 (stereo partly shown) [Compound 18]	36.4 ± 1.47	0.0 ± 0.0	56%	47				
CCOc1ccc(C2Oc3ccc(Br)cc3C=C2[N+](=O)[O-])cc1OC (stereo not shown) [Compound 23, 6-Bromo-2-(4-ethoxy-3-methoxyphenyl)-3-nitro-2H-chromene]					614			
COc1ccc(C2Oc3c(cc(Br)cc3OC)C=C2[N+](=O)[O-])cc1OC (stereo not shown) [Compound 25, 6-Bromo-2-(3,4-dimethoxyphenyl)-8-methoxy-3-nitro-2H-chromene]					515			
COc1ccc(C2Oc3ccc(Br)cc3C=C2[N+](=O)[O-])cc1OC (stereo not shown) [Compound 26, 6-Bromo-2-(3,4-dimethoxyphenyl)-3-nitro-2H-chromene]					435			
COc1ccc(C2Oc3c(Br)cc(Br)cc3C=C2[N+](=O)[O-])cc1OC (stereo not shown) [Compound 27, 6,8-Dibromo-2-(3,4-dimethoxyphenyl)-3-nitro-2H-chromene]					416			
CCOc1ccc(C2Oc3c(Br)cc(Br)cc3C=C2[N+](=O)[O-])cc1OC (stereo not shown) [Compound 28, 6,8-Dibromo-2-(4-ethoxy-3-methoxyphenyl)-3-nitro-2H-chromene]					356			
CCOc1ccc(C2Oc3c(cc(Br)cc3OC)C=C2[N+](=O)[O-])cc1OC (stereo not shown) [Compound 29, 6-Bromo-2-(4-ethoxy-3-methoxyphenyl)-8-methoxy-3-nitro-2H-chromene]					743			
CCOc1ccc(C2Oc3c(Cl)cc(Cl)cc3C=C2[N+](=O)[O-])cc1OCC (stereo not shown) [Compound 30, 6,8-Dichloro-2-(3,4-diethoxyphenyl)-3-nitro-2H-chromene]					664			
O=C(CO)[C@@H](O)[C@H](O)[C@H](O)CO [D-fructose]						2.58	18.9	48.8
O=C[C@H](O)[C@@H](O)[C@@H](O)[C@H](O)CO [D-galactose]							0.00	0.00
O=C[C@@H](O)[C@@H](O)[C@H](O)[C@H](O)CO [D-mannose]						2.69	6.18	16.6
